Here are results for 5 compounds from ChEMBL document CHEMBL4420076, “Amylin and calcitonin receptor agonist” (2017).

Numbered stars: 1 amine (or outer) side, 2 acyl side, 3 side chain; on linkers, the order of the positions; unused ones are H or OH. Peptide text beside a SMILES is read from it. * marks the point of attachment. C18 diacid = O=C(O)CCCCCCCCCCCCCCCCC(=O)*; γGlu = O=C(O)[C@H](CCC(=O)[*:2])N[*:1]; C14 diacid = O=C(O)CCCCCCCCCCCCC(=O)* A value given as a limit tells only on which side of the number the result lay.

Data set [1] has as its target T1, Amylin receptor AMY3; CALCR/RAMP3 (Homo sapiens, UniProt O60896+P30988).
T1 sequence (P30988 whole entry): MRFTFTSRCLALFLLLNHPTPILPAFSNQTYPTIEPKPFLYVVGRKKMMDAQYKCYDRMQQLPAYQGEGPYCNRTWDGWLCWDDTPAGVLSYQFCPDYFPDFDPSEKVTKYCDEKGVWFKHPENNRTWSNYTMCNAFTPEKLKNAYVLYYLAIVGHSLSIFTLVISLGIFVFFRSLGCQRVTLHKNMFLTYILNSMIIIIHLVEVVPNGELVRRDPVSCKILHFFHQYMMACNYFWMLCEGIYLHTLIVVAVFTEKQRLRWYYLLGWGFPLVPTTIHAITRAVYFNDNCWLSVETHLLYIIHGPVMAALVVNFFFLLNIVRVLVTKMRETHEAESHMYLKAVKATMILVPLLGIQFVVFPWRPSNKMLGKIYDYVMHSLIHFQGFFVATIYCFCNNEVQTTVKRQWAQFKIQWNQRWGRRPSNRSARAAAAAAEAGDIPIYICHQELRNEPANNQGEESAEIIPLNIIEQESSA
T1 sequence (O60896 whole entry): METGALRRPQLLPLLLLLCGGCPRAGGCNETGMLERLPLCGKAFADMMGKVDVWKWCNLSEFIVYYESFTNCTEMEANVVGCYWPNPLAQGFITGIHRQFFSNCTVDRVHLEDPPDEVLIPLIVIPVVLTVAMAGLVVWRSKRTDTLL
As to the kind of experiment: Agonist activity at human amylin receptor expressed in BHK570 cells co-expressing RAMP3 assessed as increase in intracellular cAMP concentration incubated for 3 hrs in absence of albumin by CRE luciferase reporter gene assay. Format: functional, cell-based. Background: A reporter such as luciferase makes a cellular process visible.

Another data set addresses T2, Calcitonin receptor (Homo sapiens, UniProt P30988).
T2 sequence (P30988 whole entry): T1 sequence (P30988 whole entry)
As to the kind of experiment: Agonist activity at human calcitonin receptor expressed in BHK570 cells assessed as increase in intracellular cAMP concentration incubated for 3 hrs in absence of albumin by CRE luciferase reporter gene assay. Format: functional, cell-based.

Data set [2] can be described thus: Solubility in 100 mM glycylglycine buffer at pH 3.0 incubated for 18 hrs by UPLC analysis. Type of data set: physicochemical.
Data set [3] is described as follows: Solubility in 100 mM glycylglycine buffer at pH 4.0 incubated for 18 hrs by UPLC analysis. Format: physicochemical.
Data set [4] can be described thus: Solubility in 100 mM bistrispropane buffer at pH 6.0 incubated for 18 hrs by UPLC analysis. Format: physicochemical.
Data set [5] in a line: Solubility in 100 mM glycylglycine buffer at pH 5.0 incubated for 18 hrs by UPLC analysis. Type of data set: physicochemical.
Data set [6] in a line: Solubility in 100 mM bistrispropane buffer at pH 6.5 incubated for 18 hrs by UPLC analysis. Format: physicochemical.
A short description of data set [7]: Solubility in 100 mM bistrispropane buffer at pH 7.0 incubated for 18 hrs by UPLC analysis. Format: physicochemical.
Data set [8] in a line: Solubility in 100 mM bistrispropane buffer at pH 7.5 incubated for 18 hrs by UPLC analysis. Format: physicochemical.
The nature of data set [9]: Solubility in 100 mM bistrispropane buffer at pH 8.0 incubated for 18 hrs by UPLC analysis. Format: physicochemical.
Data set [10] deals with T1, Amylin receptor AMY3; CALCR/RAMP3. As to the kind of experiment: Displacement of [125I]-labeled rat amylin from human amylin receptor expressed in BHK tkts13 whole cells co-expressing RAMP3 incubated for 60 mins by scintillation proximity assay. Format: cell-based. A general note: Displacement assays read how much labelled ligand stays bound in the presence of the test substance.

By EC50 is commonly meant the concentration at which the effect is half-maximal. For orientation: solubility means the dissolved amount per volume that the medium holds. Read a high solubility as much dissolved substance. A word on the IC50: it is the concentration at which inhibition is half-maximal. With `CC(C)C[C@H](NC(=O)[C@H](C)NC(=O)[C@H](C)NC(=O)[C@@H](NC(=O)[C@H](CO)NC(=O)[C@H](CC(C)C)NC(=O)[C@H](CCC(=O)O)NC(=O)[C@H](CO)NC(=O)[C@H](C)NC(=O)CC[C@H](NC(=O)CCCCCCCCCCCCC(=O)O)C(=O)O)[C@@H](C)O)C(=O)NCC(=O)N[C@@H](CCCNC(=N)N)C(=O)N[C@@H](CC(C)C)C(=O)N[C@@H](CO)C(=O)N[C@@H](C)C(=O)N[C@@H](CCC(=O)O)C(=O)N[C@@H](CC(C)C)C(=O)N[C@@H](Cc1cnc[nH]1)C(=O)N[C@@H](CCC(=O)O)C(=O)N[C@@H](CC(C)C)C(=O)N[C@@H](C)C(=O)N[C@H](C(=O)N[C@@H](CC(C)C)C(=O)N1CCC[C@H]1C(=O)N[C@@H](CCCNC(=N)N)C(=O)N[C@H](C(=O)N[C@@H](CCC(=O)O)C(=O)N[C@H](C(=O)NCC(=O)N1CCC[C@H]1C(=O)N[C@@H](CCC(=O)O)C(=O)N[C@@H](CO)C(=O)N1CCC[C@H]1C(N)=O)[C@@H](C)O)[C@@H](C)O)[C@@H](C)O` ({C14 diacid-γGlu}-ASELSTAALGRLSAELHELATLPRTETGPESP-NH2), the EC50 is 8 pM in data set [1] and 3 pM on Calcitonin receptor. For the same compound, the solubility at 18 h in data set [2], in data set [3], in data set [4], in data set [5], in data set [6] and in data set [7] was ≥ 200 µM each time. The solubility at 18 h in [8] and in data set [9] was ≥ 200 µM throughout. The IC50 in [10] was 1140 pM.

Take `CC(C)C[C@H](NC(=O)[C@H](C)NC(=O)[C@H](C)NC(=O)[C@@H](NC(=O)[C@H](CO)NC(=O)[C@H](CC(C)C)NC(=O)[C@H](CCC(N)=O)NC(=O)[C@H](CO)NC(=O)[C@H](C)NC(=O)CC[C@H](NC(=O)CCCCCCCCCCCCCCCCC(=O)O)C(=O)O)[C@@H](C)O)C(=O)NCC(=O)N[C@@H](CCCNC(=N)N)C(=O)N[C@@H](CC(C)C)C(=O)N[C@@H](CO)C(=O)N[C@@H](C)C(=O)N[C@@H](CCC(N)=O)C(=O)N[C@@H](CC(C)C)C(=O)N[C@@H](Cc1cnc[nH]1)C(=O)N[C@@H](CCC(=O)O)C(=O)N[C@@H](CC(C)C)C(=O)N[C@@H](C)C(=O)N[C@H](C(=O)N[C@@H](CC(C)C)C(=O)N1CCC[C@H]1C(=O)N[C@@H](CCCNC(=N)N)C(=O)N[C@H](C(=O)N[C@@H](CCC(=O)O)C(=O)N[C@H](C(=O)NCC(=O)N[C@@H](CO)C(=O)NCC(=O)N[C@@H](CO)C(=O)N1CCC[C@H]1C(N)=O)[C@@H](C)O)[C@@H](C)O)[C@@H](C)O` ({C18 diacid-γGlu}-ASQLSTAALGRLSAQLHELATLPRTETGSGSP-NH2): the EC50 in data set [1] is 9 pM; at Calcitonin receptor, 13 pM. Further, the solubility at 18 h in data set [2], in [3], in data set [4], in [5], in data set [6] and in data set [7] was ≥ 200 µM each time. For the same compound, the solubility at 18 h in data set [8] and in data set [9] was ≥ 200 µM in each case. In data set [10], the IC50 is 428 pM.

Regarding `CC(C)C[C@H](NC(=O)[C@H](C)NC(=O)[C@H](C)NC(=O)[C@@H](NC(=O)[C@H](CO)NC(=O)[C@H](Cc1cnc[nH]1)NC(=O)[C@H](CCC(=O)O)NC(=O)[C@H](CO)NC(=O)[C@H](C)NC(=O)[C@H](CCC(=O)O)NC(=O)CCCCCCCCCCCCCCCCC(=O)O)[C@@H](C)O)C(=O)NCC(=O)N[C@@H](CCCNC(=N)N)C(=O)N[C@@H](CC(C)C)C(=O)N[C@@H](CO)C(=O)N[C@@H](C)C(=O)N[C@@H](CCC(=O)O)C(=O)N[C@@H](CC(C)C)C(=O)N[C@@H](Cc1cnc[nH]1)C(=O)N[C@@H](CCC(=O)O)C(=O)N[C@@H](CC(C)C)C(=O)N[C@@H](C)C(=O)N[C@H](C(=O)N[C@@H](CC(C)C)C(=O)N1CCC[C@H]1C(=O)N[C@@H](CCCNC(=N)N)C(=O)N[C@H](C(=O)N[C@@H](CCC(=O)O)C(=O)N[C@H](C(=O)NCC(=O)N1CCC[C@H]1C(=O)N[C@@H](CCC(=O)O)C(=O)N[C@@H](CO)C(=O)N1CCC[C@H]1C(N)=O)[C@@H](C)O)[C@@H](C)O)[C@@H](C)O` ({C18 diacid}-EASEHSTAALGRLSAELHELATLPRTETGPESP-NH2), the EC50 in [1] is 8 pM; at Calcitonin receptor, 6 pM. In addition, the solubility at 18 h in [2], in data set [3], in data set [4], in [5], in data set [6] and in [7] was ≥ 200 µM throughout. Further, the solubility at 18 h in data set [8] and in data set [9] was ≥ 200 µM each time. Moreover, the IC50 in data set [10] is 832 pM.

Take `CC(C)C[C@H](NC(=O)[C@H](C)NC(=O)[C@H](C)NC(=O)[C@@H](NC(=O)[C@H](Cc1cnc[nH]1)NC(=O)[C@H](CC(C)C)NC(=O)[C@H](CCC(=O)O)NC(=O)[C@H](CO)NC(=O)[C@H](C)NC(=O)[C@H](CCC(=O)O)NC(=O)CCCCCCCCCCCCCCCCC(=O)O)[C@@H](C)O)C(=O)NCC(=O)N[C@@H](CCCNC(=N)N)C(=O)N[C@@H](CC(C)C)C(=O)N[C@@H](CO)C(=O)N[C@@H](C)C(=O)N[C@@H](CCC(=O)O)C(=O)N[C@@H](CC(C)C)C(=O)N[C@@H](Cc1cnc[nH]1)C(=O)N[C@@H](CCC(=O)O)C(=O)N[C@@H](CC(C)C)C(=O)N[C@@H](C)C(=O)N[C@H](C(=O)N[C@@H](CC(C)C)C(=O)N1CCC[C@H]1C(=O)N[C@@H](CCCNC(=N)N)C(=O)N[C@H](C(=O)N[C@@H](CCC(=O)O)C(=O)N[C@H](C(=O)NCC(=O)N1CCC[C@H]1C(=O)N[C@@H](CCC(=O)O)C(=O)N[C@@H](CO)C(=O)N1CCC[C@H]1C(N)=O)[C@@H](C)O)[C@@H](C)O)[C@@H](C)O` ({C18 diacid}-EASELHTAALGRLSAELHELATLPRTETGPESP-NH2): the concentration giving a half-maximal response (EC50) is 15 pM in [1] and 9 pM on Calcitonin receptor. Further, the solubility at 18 h in [2], in [3], in [4], in data set [5], in data set [6] and in data set [7] was ≥ 200 µM each time. In addition, the solubility at 18 h in [8] and in [9] was ≥ 200 µM throughout. For the same compound, in [10], the IC50 was 1310 pM.

With `CC[C@H](C)[C@H](NC(=O)[C@H](CCC(=O)O)NC(=O)[C@H](C)NC(=O)[C@H](CO)NC(=O)[C@H](CC(C)C)NC(=O)[C@H](CCCNC(=N)N)NC(=O)CNC(=O)[C@H](CC(C)C)NC(=O)[C@H](C)NC(=O)[C@H](C)NC(=O)[C@@H](NC(=O)[C@H](CO)NC(=O)[C@H](CC(C)C)NC(=O)[C@H](CCC(=O)O)NC(=O)[C@H](CO)NC(=O)[C@H](C)NC(=O)[C@H](CCC(=O)O)NC(=O)CCCCCCCCCCCCCCCCC(=O)O)[C@@H](C)O)C(=O)N[C@@H](Cc1cnc[nH]1)C(=O)N[C@@H](CCC(=O)O)C(=O)N[C@@H](CC(C)C)C(=O)N[C@@H](C)C(=O)N[C@H](C(=O)N[C@@H](CC(C)C)C(=O)N1CCC[C@H]1C(=O)N[C@@H](CCCNC(=N)N)C(=O)N[C@H](C(=O)N[C@@H](CCC(=O)O)C(=O)N[C@H](C(=O)NCC(=O)N1CCC[C@H]1C(=O)N[C@@H](CCC(=O)O)C(=O)N[C@@H](CO)C(=O)N1CCC[C@H]1C(N)=O)[C@@H](C)O)[C@@H](C)O)[C@@H](C)O` ({C18 diacid}-EASELSTAALGRLSAEIHELATLPRTETGPESP-NH2), the EC50 in [1] was 7 pM; on Calcitonin receptor it was 5 pM. Further, the solubility at 18 h in [2], in data set [3], in data set [4], in data set [5], in [6] and in [7] was ≥ 200 µM each time. Further, the solubility at 18 h in data set [8] and in data set [9] was ≥ 200 µM throughout. For the same compound, the IC50 in [10] was 1480 pM.
